Measurements as given in patent publication US20240173334A1, “Oral (17-ß)-3-Oxoandrost-4-EN-17-YL Tridecanoate Therapy” (Lipocine Inc., priority 2018, published 2024).

How the values were obtained:
[1] = ascending multiple-dose steady-state PK of undecanoate in dosage form B1 in hypogonadal males (Example 6); format: in vivo, human (adult hypogonadal male subjects)
Method: A single-center, randomized, double-blind, placebo-controlled, ascending multiple-dose, serial-group study was conducted to evaluate the safety, tolerability, and the steady-state PK parameters of an oral composition comprising substantially noncrystalline form of (17-ß)-3-oxoandrost-4-en-17-yl undecanoate in adult hypogonadal male subjects (N=84). The treatments were following as: • Treatment A: 75 mg of (17-ß)-3-oxoandrost-4-en-17-yl undecanoate as androst-4-en-17β-ol-3-one ester based on dosage form B1 in BID. • Treatment B: 150 mg of (17-ß)-3-oxoandrost-4-en-17-yl undecanoate as androst-4-en-17β-ol-3-one ester based on dosage form B1 in BID. • Treatment C: 225 mg of (17-ß)-3-oxoandrost-4-en-17-yl undecanoate as androst-4-en-17β-ol-3-one ester based on dosage form B1 in BID. • Treatment D: 300 mg of (17-ß)-3-oxoandrost-4-en-17-yl undecanoate as androst-4-en-17β-ol-3-one ester based on dosage form B1 in BID. • Treatment E: placebo capsules in BID
(§1) The steady state PK parameters were obtained post the treatment initiation.

[2] = multiple-dose steady-state PK of dosage form B7 in hypogonadal males (Example 5); format: in vivo, human (hypogonadal males)
Method: A multi-center, open-label, randomized, 4-treatment arm, multiple-dose study was performed to evaluate the safety, tolerability, and the steady-state PK parameters of the oral composition comprising substantially noncrystalline form of (17-ß)-3-oxoandrost-4-en-17-yl tridecanoate (dosage form B7) in hypogonadal males (N=48). The treatments were following as: • Treatment A: 500 mg of (17-ß)-3-oxoandrost-4-en-17-yl tridecanoate as androst-4-en-17β-ol-3-one ester in dosage form B7 in QD. • Treatment B: 750 mg of (17-ß)-3-oxoandrost-4-en-17-yl tridecanoate as androst-4-en-17β-ol-3-one ester in dosage form B7 in QD. • Treatment C: 1000 mg of (17-ß)-3-oxoandrost-4-en-17-yl tridecanoate as androst-4-en-17β-ol-3-one ester in dosage form B7 in QD. • Treatment D: 1250 mg of (17-ß)-3-oxoandrost-4-en-17-yl tridecanoate as androst-4-en-17β-ol-3-one ester in dosage form B7 in QD.
as §1
The evaluation of the relation between Cavg or Cmax and dose amount of (17-ß)-3-oxoandrost-4-en-17-yl tridecanoate was performed using the group mean values of Cavg and Cmax of androst-4-en-17β-ol-3-one obtained at the steady state.

[3] = 75 mg BID, dosage form B1, N=16
[4] = 150 mg BID, dosage form B1, N=16
[5] = 225 mg BID, dosage form B1, N=16
[6] = 300 mg BID, dosage form B1, N=9
[7] = 500 mg QD, dosage form B7, N=12
[8] = 750 mg QD, dosage form B7, N=11
[9] = 1000 mg QD, dosage form B7, N=12
[10] = 1250 mg QD, dosage form B7, N=12

| Compound | Cavg of androst-4-en-17β-ol-3-one, mean (±SD) [1, 3] | Cmax of androst-4-en-17β-ol-3-one, mean (±SD) [1, 3] | Cavg of androst-4-en-17β-ol-3-one, mean (±SD) [1, 4] | Cmax of androst-4-en-17β-ol-3-one, mean (±SD) [1, 4] | Cavg of androst-4-en-17β-ol-3-one, mean (±SD) [1, 5] | Cmax of androst-4-en-17β-ol-3-one, mean (±SD) [1, 5] | Cavg of androst-4-en-17β-ol-3-one, mean (±SD) [1, 6] | Cmax of androst-4-en-17β-ol-3-one, mean (±SD) [1, 6] | Cavg of androst-4-en-17β-ol-3-one, mean (±SD) [2, 7] | Cmax of androst-4-en-17β-ol-3-one, mean (±SD) [2, 7] | Cavg of androst-4-en-17β-ol-3-one, mean (±SD) [2, 8] | Cmax of androst-4-en-17β-ol-3-one, mean (±SD) [2, 8] | Cavg of androst-4-en-17β-ol-3-one, mean (±SD) [2, 9] | Cmax of androst-4-en-17β-ol-3-one, mean (±SD) [2, 9] | Cavg of androst-4-en-17β-ol-3-one, mean (±SD) [2, 10] | Cmax of androst-4-en-17β-ol-3-one, mean (±SD) [2, 10] |
| --- | --- | --- | --- | --- | --- | --- | --- | --- | --- | --- | --- | --- | --- | --- | --- | --- |
| CCCCCCCCCCC(=O)O[C@H]1CC[C@H]2[C@@H]3CCC4=CC(=O)CC[C@]4(C)[C@H]3CC[C@]12C [(17-ß)-3-oxoandrost-4-en-17-yl undecanoate] | 270 (94) ng/dL | 544 (169) ng/dL | 319 (77) ng/dL | 792 (276) ng/dL | 446 (161) ng/dL | 1169 (356) ng/dL | 582 (184) ng/dL | 1644 (644) ng/dL | – | – | – | – | – | – | – | – |
| CCCCCCCCCCCCC(=O)O[C@H]1CC[C@H]2[C@@H]3CCC4=CC(=O)CC[C@]4(C)[C@H]3CC[C@]12C [[(8R,9S,10R,13S,14S,17S)-10,13-dimethyl-3-oxo-1,2,6,7,8,9,11,12,14,15,16,17-dodecahydrocyclopenta[a]phenanthren-17-yl] tridecanoate] | – | – | – | – | – | – | – | – | 307 (157) ng/dL | 608 (318) ng/dL | 352 (41) ng/dL | 822 (254) ng/dL | 405 (148) ng/dL | 930 (326) ng/dL | 465 (201) ng/dL | 1233 (695) ng/dL |
